Source: patent US20190375778A1, “ADENOSINE DERIVATIVES FOR USE IN THE TREATMENT OF CANCER” (NuCana plc, priority 2016, published 2019)
Where two headings read alike, the source gives them in different places.

Assays:
[1] = test system: RPMI-8226; assay: CellTiterGlo viability assay, RPMI-8226; type: cell-based, Human; conditions: for IC50: read-out: IC50 RPMI-8226
Method in brief: (§1)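 Each cell line treated ~72 h under standard growth conditions, in duplicate, with 9-point 3.16-fold titrations; final concentrations from 198 μM down to 19.9 nM, 0.5% DMSO. Viability read by CellTiterGlo luminescence.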

[2] = test system: MiaPaCa-2; assay: CellTiterGlo viability assay, MiaPaCa-2; type: cell-based; conditions: for IC50: read-out: IC50 MiaPaCa-2
Method: (§2) In vitro viability assay were performed to assess the effects of compounds on cell viability in selected cell lines over ˜72 hrs using the CellTiterGlo (CTG, Promega-G7573) assay. The tests were performed in duplicates with treatment of compounds at 9 points, 3.16 folds titration in 96 well plates over ˜72 hrs. The compound starting concentrations were 198 μM. Cell viability assay using CellTiterGlo in 96-well plate were performed. Compound treatment 72 hrs, standard growth conditions, duplicates. Compounds were dissolved to 40 mM with thawed […]. Compounds were serially diluted at 3.16 fold in thawed DMSO, and warmed to 37° C. before being dissolved in media (2 μl+200 μl). After compounds were dissolved in media, media containing compounds were warmed to 37° C. in incubator and then compounds in media were added to cell plates (50 μl+50 μl) in duplicates. The compounds' final concentrations were from […] to 19.9 nM. All compound solubilities were checked and recorded again, then the plates were transferred to CO2 tissue culture incubator immediately and incubated for 3 days. DMSO final concentration is 0.5%.

[3] = test system: MV4-11; assay: CellTiterGlo viability assay, MV4-11; type: cell-based; conditions: Homo sapiens, read-out: IC50 MV4-11
Method in brief: as §1

[4] = test system: Murine leukemia L1210; assay: Cell proliferation (Coulter count) assay, L1210; type: cell-based; conditions: Mus musculus, 48 h, read-out: absolute IC50, L1210
Method in brief: (§3)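 Cells grown in DMEM with 10% FBS. HeLa seeded at 10 000 cells/well, compound added after 24 h, counted day 5; L1210 and CEM seeded at 60 000 cells/well with compound, counted after 48 h and 72 h respectively. IC50 is concentration halving proliferation by Coulter count.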

[5] = test system: human T-lymphocyte CEM; assay: Cell proliferation (Coulter count) assay, CEM; type: cell-based; conditions: 72 h, read-out: absolute IC50, CEM
Method in brief: as §3

[6] = test system: KG-1; assay: CellTiterGlo viability assay, KG-1; type: cell-based; conditions: Homo sapiens, read-out: IC50 KG-1
Method in brief: as §1

[7] = test system: HT29; assay: CellTiterGlo viability assay, HT29; type: cell-based; conditions: for IC50: read-out: IC50 HT29
Method: as §2

[8] = test system: human cervix carcinoma HeLa cells; assay: Cell proliferation (Coulter count) assay, HeLa; type: cell-based; conditions: 120 h, cell count on day 5, read-out: absolute IC50, HeLa
Method in brief: as §3

[9] = test system: KG1a leukaemic stem cell compartment (Lin−/CD34+/CD38−/CD123+); assay: Leukaemic stem cell compartment in KG1a; type: cell-based; conditions: for Change relative to control (%): % LSC compartment versus the series' control; for KG-1a (CD34+/CD38−/CD123+) % compartment: LSC as percentage of viable cells left, 72 hrs; for targeting of leukaemic/cancer stem cells in words: KG1a, compared to 8-chloroadenosine (FIG. 2, FIG. 8)
Method: A further comparative analysis of the toxicity of compounds in the KG1a cell line over an extended dose range was carried out, and the relative effect assessed of the compounds on the leukaemic stem cell compartment within the KG1a cell line, across the entire dose range. Thus, experimental tests were performed on certain compounds of the present invention to assess their ability to target cancer stem cells in a leukaemic cell line. The acute myeloid leukaemia (AML) cell line, KG1a, was employed to assess the relative effect of compounds on the stem cell compartment. The KG1a cell line was selected because it manifests a minor stem cell-like compartment with a distinct immunophenotype (Lin^−/CD34^+/CD38^−/CD123^+).
Cells of the KG1a cell line were maintained in RPMI medium (Invitrogen, Paisley, UK) supplemented with 100 units/ml penicillin, 100 μg/ml streptomycin and 20% foetal calf serum. Cells were subsequently aliquoted (10^5 cells/100 μl) into 96-well plates and were incubated at 37° C. in a humidified 5% carbon dioxide atmosphere for 72 hrs in the presence of nucleoside analogues and their respective nucleotide analogues (known as ProTides) at concentrations that were experimentally determined for each series of compounds. In addition, control cultures were carried out to which no drug was added. Cells were subsequently harvested by centrifugation and were analyzed by flow cytometry using the Annexin V assay.
KG1a cells were cultured for 72 hrs in the presence of a wide range of concentrations of each compound assayed. Cells were then harvested and labelled with a cocktail of anti-lineage antibodies (PE-cy7), anti-CD34 (FITC), anti-CD38 (PE) and anti-CD123 (PERCP cy5). The sub-population expressing a leukaemic stem cell (LSC) phenotype were subsequently identified and were expressed as a percentage of all viable cells left in the culture. The percentages of stem cells remaining were then plotted on a dose-response graph and the effects of the compounds were compared with 8-chloroadenosine.
The data obtained in these experiments were evaluated using one way ANOVA. All data was confirmed as Gaussian or a Gaussian approximation using the omnibus K2 test. LD50 values were calculated from the non-linear regression and line of best-fit analysis of the sigmoidal dose-response curves. All statistical analyses were performed using Graphpad Prism 6.0 software (Graphpad Software Inc., San Diego, Calif.).

[10] = test system: HL-60; assay: CellTiterGlo viability assay, HL-60; type: cell-based; conditions: for IC50: read-out: IC50 HL-60
Method in brief: as §1

[11] = test system: RL; assay: CellTiterGlo viability assay, RL; type: cell-based; conditions: for IC50: read-out: IC50 RL
Method in brief: as §1

[12] = Homo sapiens, RPMI-8226, CellTiterGlo, 72 hrs
[13] = Homo sapiens, MIA PaCa-2, CellTiterGlo, 72 hrs
[14] = Homo sapiens, HT-29, CellTiterGlo, 72 hrs
[15] = Homo sapiens, HL-60, CellTiterGlo, 72 hrs
[16] = Homo sapiens, RL, CellTiterGlo, 72 hrs

SMILES | IC50 ([1]; Homo sapiens, RPMI-8226, 72 h) | IC50 ([2]; Homo sapiens, MIA PaCa-2, 72 h) | IC50 ([3]; MV4-11, 72 h) | IC50 [4] | IC50 [5] | IC50 ([6]; KG-1, 72 h) | IC50 ([7]; Homo sapiens, HT-29, 72 h) | IC50 [8] | KG-1a (CD34+/CD38−/CD123+) % compartment [9] | IC50 ([10]; Homo sapiens, HL-60, 72 h) | IC50 ([11]; Homo sapiens, RL, 72 h) | further results
C[C@H](NP(=O)(OC[C@H]1O[C@@H](n2c(Cl)nc3c(N)ncnc32)C(O)C1O)Oc1cccc2ccccc12)C(=O)OCc1ccccc1 (stereo partly drawn) [Compound D, (2S)-Benzyl 2-(((((2R,3S,4R,5R)-5-(6-amino-8-chloro-9H-purin-9-yl)-3,4-dihydroxy-tetrahydrofuran-2-yl)methoxynaphthalene-1-yloxy)phosphoryl)amino)propanoate] | 0.1 to 5 µM | 0.1 to 5 µM | 0.1 to 5 µM | 5 to 15 µM | 0.1 to 5 µM | 5 to 15 µM | 0.1 to 5 µM | 0.1 to 5 µM | 2.5% | 5 to 15 µM | 5 to 15 µM | Change relative to control (%) [9]: −0.8%
Nc1ncnc2c1nc(Cl)n2[C@@H]1O[C@H](COP(=O)(NCC(=O)OC2CCCCC2)Oc2ccccc2)[C@@H](O)[C@H]1O (mixture of isomers) [Compound A, Cyclohexyl 2-(((((2R,3S,4R,5R)-5-(6-amino-8-chloro-9H-purin-9-yl)-3,4-dihydroxy-tetrahydrofuran-2-yl)methoxy)(phenoxy)phosphoryl)amino)acetate] | 5 to 15 µM | 5 to 15 µM | 0.1 to 5 µM | 15 to 100 µM | 15 to 100 µM | > 100 µM | 15 to 100 µM | 15 to 100 µM |  | 5 to 15 µM | 5 to 15 µM | 
Nc1ncnc2c1nc(Cl)n2[C@@H]1O[C@H](COP(=O)(NCC(=O)OCc2ccccc2)Oc2ccccc2)[C@@H](O)[C@H]1O (mixture of isomers) [Compound B, Benzyl 2-(((((2R,3S,4R,5R)-5-(6-amino-8-chloro-9H-purin-9-yl)-3,4-dihydroxytetra-hydrofuran-2-yl)methoxy)(phenoxy)phosphoryl)amino)acetate] | 0.1 to 5 µM | 0.1 to 5 µM | 0.1 to 5 µM | 5 to 15 µM | 5 to 15 µM | 0.1 to 5 µM | 0.1 to 5 µM | 0.1 to 5 µM | 2.7% | 0.1 to 5 µM | 5 to 15 µM | targeting of leukaemic/cancer stem cells in words [9]: particularly effective preferential targeting of LSCs
Nc1ncnc2c1nc(Cl)n2[C@@H]1O[C@H](COP(=O)(NCC(=O)OCc2ccccc2)NCC(=O)OCc2ccccc2)C(O)C1O (some centres unmarked) [Compound AC, 8-Chloroadenosine 5′-O-bis(benzyloxy-glycin-N-yl) phosphate] |  |  |  | 0.1 to 5 µM | 0.1 to 5 µM |  |  | 0.1 to 5 µM |  |  |  | IC50 [1, 12]: 0.1 to 5 µM; IC50 [2, 13]: 0.1 to 5 µM; IC50 ([3]; MV4-11, CellTiterGlo, 72 hrs): 0.1 to 5 µM; IC50 ([6]; KG-1, CellTiterGlo, 72 hrs): 0.1 to 5 µM; IC50 [7, 14]: 0.1 to 5 µM; targeting of leukaemic/cancer stem cells in words [9]: no evidence of a capacity to target cancer stem cells; IC50 [10, 15]: 0.1 to 5 µM; IC50 [11, 16]: 0.1 to 5 µM
Nc1ncnc2c1nc(Cl)n2[C@@H]1O[C@H](CO)[C@@H](O)[C@H]1O [8-chloroadenosine, 8-Chloroadenosine, reference compound] |  |  |  | 0.1 to 5 µM | 0.1 to 5 µM |  |  | 0.1 to 5 µM | 3.7% |  |  | Top in. % RPMI-8226 [1]: 96.2%; IC50 [1, 12]: 0.1 to 5 µM; EC50 ([1]; Homo sapiens, RPMI-8226, read-out: Ab EC50 (μM) RPMI-8226): 1.34 µM; Top in. % MiaPa-Ca-2 [2]: 86.2%; IC50 [2, 13]: 0.1 to 5 µM; EC50 ([2]; Homo sapiens, MIA PaCa-2, read-out: Ab EC50 (μM) MiaPa-Ca-2): 0.44 µM; IC50 ([3]; MV4-11, CellTiterGlo, 72 hrs): 0.1 to 5 µM; IC50 ([6]; KG-1, CellTiterGlo, 72 hrs): 0.1 to 5 µM; Top in. % HT29 [7]: 80.2%; IC50 [7, 14]: 0.1 to 5 µM; EC50 ([7]; Homo sapiens, HT-29, read-out: Ab EC50 (μM) HT29): 1.35 µM; Change relative to control (%) [9]: +0.4%; Top in. % HL-60 [10]: 97.1%; IC50 [10, 15]: 0.1 to 5 µM; EC50 ([10]; Homo sapiens, HL-60, read-out: Ab EC50 (μM) HL-60): 10.2 µM; Top in. % RL [11]: 87.3%; IC50 [11, 16]: 5 to 15 µM; EC50 ([11]; Homo sapiens, RL, read-out: Ab EC50 (μM) RL): 4.39 µM
C[C@H](NP(=O)(OC[C@H]1O[C@@H](n2c(Cl)nc3c(N)ncnc32)[C@H](O)[C@@H]1O)Oc1ccccc1)C(=O)OCc1ccccc1 (mixture of isomers) [C, (2S)-Benzyl 2-(((((2R,3S,4R,5R)-5-(6-amino-8-chloro-9H-purin-9-yl)-3,4-dihydroxy-tetrahydrofuran-2-yl)methoxy)(phenoxy)phosphoryl)amino)propanoate] | 5 to 15 µM | 5 to 15 µM | 0.1 to 5 µM | 15 to 100 µM | 15 to 100 µM | > 100 µM | 5 to 15 µM | 5 to 15 µM | 3.3% | 5 to 15 µM | 15 to 100 µM | 
CC(C)C[C@H](NP(=O)(OC[C@H]1O[C@@H](n2c(Cl)nc3c(N)ncnc32)C(O)C1O)Oc1ccccc1)C(=O)OCc1ccccc1 (stereo partly drawn) [V, 5′-([(Benzyloxy-L-leucin-N-yl)-phenyl]-phosphatyl) 8-chloroadenosine] | 0.1 to 5 µM | 0.1 to 5 µM | 0.1 to 5 µM | 15 to 100 µM |  | 5 to 15 µM | 0.1 to 5 µM | 0.1 to 5 µM |  | 5 to 15 µM | 15 to 100 µM | 
CCCCCOC(=O)[C@H](C)NP(=O)(OC[C@H]1O[C@@H](n2c(Cl)nc3c(N)ncnc32)C(O)C1O)Oc1cccc2ccccc12 (stereo partly drawn) [Compound E, (2S)-Pentyl 2-(((((2R,3S,4R,5R)-5-(6-amino-8-chloro-9H-purin-9-yl)-3,4-dihydroxy-tetrahydrofuran-2-yl)methoxnaphthalene-1-yloxy)phosphoryl)amino)propanoate] | 0.1 to 5 µM | 0.1 to 5 µM | 0.1 to 5 µM | 5 to 15 µM | 0.1 to 5 µM | 0.1 to 5 µM | 0.1 to 5 µM | 0.1 to 5 µM | 3.5% | 0.1 to 5 µM | 5 to 15 µM | 
